Data published in US11801209B2, “Cooling and flavor boosting compositions” (Firmenich SA, priority 2017, dated 2023).

Test system: expert panel of three subjects
Experiment: Sensory evaluation of toothpaste test formulations by an expert panel: intensity of mint flavor and of cooling effect
Type: in vivo, human
Conditions: test toothpaste formulation, summary of Table 8
Protocol: The potentiation may be determined by any method readily selected by one of ordinary skill in the art. In some aspects, the potentiation is determined using a sensory panel. In the aspects where the potentiation is determined using a sensory panel a subject may contact their oral cavity with a composition, and rate the perceived flavor strength and cooing strength of the composition.
In some aspects, the perceived flavor intensity may be rated from 0 to 5, wherein 0 is no perceived flavor intensity, 1 is a very low perceived flavor intensity, 2 is a low perceived flavor intensity, 3 is a moderate perceived flavor intensity, 4 is a high perceived flavor intensity, and 5 is a very high perceived flavor intensity.
In some aspects, the perceived cooling intensity may be rated from 0 to 5, wherein 0 is no perceived cooling intensity, 1 is a very low perceived cooling intensity, 2 is a low perceived cooling intensity, 3 is a moderate perceived cooling intensity, 4 is a high perceived cooling intensity, and 5 is a very high perceived […].
(§1) An expert panel of three subjects was asked to evaluate the intensity of the mint flavor and the intensity of the cooling effect of the test formulations. The subjects were asked to apply approximately 1 g of a test sample on to a toothbrush, and rinse the toothbrush under running water for 5 secs to moisten the paste and soften the bristles. The subjects then brushed their teeth with the applied test sample, taking care to minimize any contact with the subjects' gums. The subjects then expectorated the test sample, and rinsed their mouth with water. The subjects then ranked the intensity of the mint flavor and the intensity of the cooling effect of the test formulations. The subjects were asked to wait for 15 min between each test sample.
as §1, with “subjects” for “subjects was”

## Cc1noc(C)c1Cn1cc(N2C(=O)CN(Cc3cccc(O)c3)C2=O)cn1 [3-(1-((3,5-dimethylisoxazol-4-yl)methyl)-1H-pyrazol-4-yl)-1-(3-hydroxybenzyl)imidazolidine-2,4-dione]
  effect on perceived flavor intensity and perceived cooling intensity of the mint flavor: able to increase both the perceived flavor intensity and the perceived cooling intensity

## CCCCC[C@@H]1C(=O)CC[C@@H]1CC(=O)OC [(+)-methyl(1R)-cis-3-oxo-2-pentyl-1-cyclopentaneacetate]
  effect on perceived flavor intensity and perceived cooling intensity of the mint flavor: able to increase both the perceived flavor intensity and the perceived cooling intensity

## O=C(O)C1CCCCC1 [cyclohexanecarboxylic acid]
  effect on perceived flavor intensity and perceived cooling intensity of the mint flavor: able to increase both the perceived flavor intensity and the perceived cooling intensity

## COc1cc(/C=C/C(=O)O)ccc1O [ferulic acid]
  effect on perceived flavor intensity and perceived cooling intensity of the mint flavor: able to increase both the perceived flavor intensity and the perceived cooling intensity

## COC(C)=O [methyl acetate]
  effect on perceived flavor intensity and perceived cooling intensity of the mint flavor: able to increase both the perceived flavor intensity and the perceived cooling intensity

## CCCC(CCC)NC(=O)c1ccc2c(c1)OCO2 [n-(1-propylbutyl)-1,3-benzodioxole-5-carboxamide]
  effect on perceived flavor intensity and perceived cooling intensity of the mint flavor: able to increase both the perceived flavor intensity and the perceived cooling intensity

## O=C(CCc1ccc(O)cc1)c1c(O)cc(O)cc1O [phloretin]
  effect on perceived flavor intensity and perceived cooling intensity of the mint flavor: able to increase both the perceived flavor intensity and the perceived cooling intensity
